molecular target: c-Met kinase (h-Met; histidine-tagged c-Met catalytic domain fusion protein) (Homo sapiens (Human), UniProt P08581); assay: In Vitro c-Met Kinase Enzyme Assays; assay type: biochemical; details: phosphorylation of poly Glu-Tyr, 5 μM ATP, 25 minutes at 30° C.
Protocol: Compounds were screened in vitro for their ability to inhibit c-Met kinase activity. […] Briefly, histidine-tagged c-Met catalytic domain fusion protein (Invitrogen, #PV3143) was used for the assay. […] The reaction lasted for 25 minutes at 30° C. After the reaction was completed, the contents of the plates was discarded. Plates were then washed with TBS-T (250 μL/well, 5×) and then blocked with TBS-T containing 1% BSA for 2 hours. The contents of the plates was discarded, and 100 μL (per well) of peroxidase-labeled anti-phospho-tyrosine antibody (Sigma, #A5964) diluted (1:60,000) in 1% BSA containing TBS-T were then added and incubated for 1 hour. Plates were washed with TBS-T ([…], 5×) and followed by the color reaction using 100 μL (1:1 mixture) of H2O2 and tetramethylbenzidine (R&D Systems, #DY999). The reaction was stopped in minutes with 100 μL of 2 N H2SO4. The optical density was measured immediately using a microplate reader at 450 nm with wavelength correction at 540 nm. IC50 values were calculated with the GraphPad Prism software. The linear range (i.e., the time period over which the rate remained equivalent to the initial rate) was determined for the kinase and IC50 determinations were performed within this range.

c-Met kinase (h-Met; histidine-tagged c-Met catalytic domain fusion protein), sequence (P08581 1078-1345): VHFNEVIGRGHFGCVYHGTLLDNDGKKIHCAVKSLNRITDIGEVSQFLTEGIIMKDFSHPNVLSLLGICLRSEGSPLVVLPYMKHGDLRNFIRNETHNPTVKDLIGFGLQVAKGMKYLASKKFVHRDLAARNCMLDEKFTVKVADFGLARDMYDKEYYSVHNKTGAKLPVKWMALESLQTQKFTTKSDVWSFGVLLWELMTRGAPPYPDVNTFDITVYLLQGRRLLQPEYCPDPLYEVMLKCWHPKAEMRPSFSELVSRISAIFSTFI

IC50 [nM]	Structure (SMILES)
< 500	O[C@@H]1CCN(Cc2ccc(-c3cnc4ncc(C5(c6ccc7ncccc7c6)CC5)n4c3)cc2F)C1 [Example 68, (3R)-1-{2-Fluoro-4-[3-(1-quinolin-6-ylcyclopropyl)imidazo[1,2-a]pyrimidin-6-yl]benzyl}pyrrolidin-3-ol]
< 500	O=C1OCCN1Cc1ccc(-c2cnc3ncc(C4(c5ccc6ncccc6c5)CC4)n3c2)cc1F [Example 70, 3-{2-Fluoro-4-[3-(1-quinolin-6-ylcyclopropyl)imidazo[1,2-a]pyrimidin-6-yl]benzyl}-1,3-oxazolidin-2-one]
< 500	Cc1nc(-c2cnc3ncc(C4(c5ccc6ncccc6c5)CC4)n3c2)cs1 [Example 73, 6-{1-[6-(2-Methyl-1,3-thiazol-4-yl)imidazo[1,2-a]pyrimidin-3-yl]cyclopropyl}quinoline]
< 500	c1cnc2ccc(C3(c4cnc5ncc(-c6cscn6)cn45)CC3)cc2c1 [Example 74, 6-{1-[6-(1,3-Thiazol-4-yl)imidazo[1,2-a]pyrimidin-3-yl]cyclopropyl}quinoline]
< 500	NC(=O)c1cc(F)c(-c2cnc3ncc(C4(c5ccc6ncccc6c5)CC4)n3c2)cc1F [Example 78, 2,5-Difluoro-4-[3-(1-quinolin-6-ylcyclopropyl)imidazo[1,2-a]pyrimidin-6-yl]benzamide]
< 2000	O=C1CCCN1c1ccc(-c2cnc3ncc(C4(c5ccc6ncccc6c5)CC4)n3c2)cc1F [Example 81, 1-{2-Fluoro-4-[3-(1-quinolin-6-ylcyclopropyl)imidazo[1,2-a]pyrimidin-6-yl]phenyl}pyrrolidin-2-one]
< 500	O=C1OCCN1c1ccc(-c2cnc3ncc(C4(c5ccc6ncccc6c5)CC4)n3c2)cc1F [Example 82, 3-{2-Fluoro-4-[3-(1-quinolin-6-ylcyclopropyl)imidazo[1,2-a]pyrimidin-6-yl]phenyl}-1,3-oxazolidin-2-one]
< 500	CCOC(=O)N1CCC(n2cc(-c3cnc4ncc(C5(c6ccc7ncccc7c6)CC5)n4c3)cn2)CC1 [Example 83, Ethyl 4-{4-[3-(1-quinolin-6-ylcyclopropyl)imidazo[1,2-a]pyrimidin-6-yl]-1H-pyrazol-1-yl}piperidine-1-carboxylate]
< 500	Cn1cc(-c2ccc(-c3cnc4ncc(C5(c6ccc7ncccc7c6)CC5)n4c3)cc2F)cn1 [Example 87, 6-(1-{6-[3-Fluoro-4-(1-methyl-1H-pyrazol-4-yl)phenyl]imidazo[1,2-a]pyrimidin-3-yl}cyclopropyl)quinoline]
< 500	c1cnc2ccc(C3(c4cnc5ncc(-c6cnn(C7CCOC7)c6)cn45)CC3)cc2c1 (centres unmarked) [Example 88, 6-(1-{6-[1-(Tetrahydrofuran-3-yl)-1H-pyrazol-4-yl]imidazo[1,2-a]pyrimidin-3-yl}cyclopropyl)quinoline]
< 3000	c1ccc(CN2CCC(n3cc(-c4cnc5ncc(C6(c7ccc8ncccc8c7)CC6)n5c4)cn3)C2)cc1 (centres unmarked) [Example 89, 6-(1-{6-[1-(1-Benzylpyrrolidin-3-yl)-1H-pyrazol-4-yl]imidazo[1,2-a]pyrimidin-3-yl}cyclopropyl)quinoline]
< 500	Cn1cc(-c2cnc3ncc(C4(c5ccc6ncccc6c5)CC4)n3c2)cn1 [Example 90, 6-{1-[6-(1-Methyl-1H-pyrazol-4-yl)imidazo[1,2-a]pyrimidin-3-yl]cyclopropyl}quinoline]
< 500	CN(C)C(=O)N1CCC(n2cc(-c3cnc4ncc(C5(c6ccc7ncccc7c6)CC5)n4c3)cn2)CC1 [Example 91, N,N-Dimethyl-4-{4-[3-(1-quinolin-6-ylcyclopropyl)imidazo[1,2-a]pyrimidin-6-yl]-1H-pyrazol-1-yl}piperidine-1-carboxamide]
< 500	OC1CCC(n2cc(-c3cnc4ncc(C5(c6ccc7ncccc7c6)CC5)n4c3)cn2)CC1 (centres unmarked) [Example 92, 4-{4-[3-(1-Quinolin-6-ylcyclopropyl)imidazo[1,2-a]pyrimidin-6-yl]-1H-pyrazol-1-yl}cyclohexanol]
< 500	N#CCn1cc(-c2cnc3ncc(C4(c5ccc6ncccc6c5)CC4)n3c2)cn1 [Example 93, {4-[3-(1-Quinolin-6-ylcyclopropyl)imidazo[1,2-a]pyrimidin-6-yl]-1H-pyrazol-1-yl}acetonitrile]

The remaining lines, values behind:

Structure (SMILES)	IC50 [nM]
CN(C)C(=O)NCc1ccc(-c2cnc3ncc(C4(c5ccc6ncccc6c5)CC4)n3c2)cc1F [Example 67, N′-2-Fluoro-4-[3-(1-quinolin-6-ylcyclopropyl)imidazo[1,2-a]pyrimidin-6-yl]benzyl-N,N-dimethylurea]	< 500
Fc1cc(-c2cnc3ncc(C4(c5ccc6ncccc6c5)CC4)n3c2)ccc1Cn1cccn1 [Example 69, 6-(1-{6-[3-Fluoro-4-(1H-pyrazol-1-ylmethyl)phenyl]imidazo[1,2-a]pyrimidin-3-yl}cyclopropyl)quinoline]	< 500
CNC(=O)c1ccc(-c2cnc3ncc(Cc4ccc5nccnc5c4)n3n2)cc1F [Example 71, 2-Fluoro-N-methyl-4-[7-(quinoxalin-6-ylmethyl)imidazo[1,2-b][1,2,4]triazin-2-yl]benzamide]	< 500
CNC(=O)c1ccc(-c2cnc3ncc(C4(c5ccc6ncccc6c5)CC4)n3c2)c(F)c1 [Example 75, 3-Fluoro-N-methyl-4-[3-(1-quinolin-6-ylcyclopropyl)imidazo[1,2-a]pyrimidin-6-yl]benzamide]	< 500
O=C(c1ccc(-c2cnc3ncc(C4(c5ccc6ncccc6c5)CC4)n3c2)c(F)c1)N1CC[C@H](O)C1 [Example 76, (3S)-1-{3-Fluoro-4-[3-(1-quinolin-6-ylcyclopropyl)imidazo[1,2-a]pyrimidin-6-yl]benzoyl}pyrrolidin-3-ol]	< 500
CNC(=O)c1cc(F)c(-c2cnc3ncc(C4(c5ccc6ncccc6c5)CC4)n3c2)cc1F [Example 77, 2,5-Difluoro-N-methyl-4-[3-(1-quinolin-6-ylcyclopropyl)imidazo[1,2-a]pyrimidin-6-yl]benzamide]	< 500
O=C(NC1CC1)c1cc(F)c(-c2cnc3ncc(C4(c5ccc6ncccc6c5)CC4)n3c2)cc1F [Example 79, N-Cyclopropyl-2,5-difluoro-4-[3-(1-quinolin-6-ylcyclopropyl)imidazo[1,2-a]pyrimidin-6-yl]benzamide]	< 500
O=C(N[C@H]1CC[C@H](O)CC1)c1cc(F)c(-c2cnc3ncc(C4(c5ccc6ncccc6c5)CC4)n3c2)cc1F [Example 80, 2,5-Difluoro-N-(trans-4-hydroxycyclohexyl)-4-[3-(1-quinolin-6-ylcyclopropyl)imidazo[1,2-a]pyrimidin-6-yl]benzamide]	< 500
CN(C)C(=O)Cn1cc(-c2ccc(-c3cnc4ncc(C5(c6ccc7ncccc7c6)CC5)n4c3)cc2F)cn1 [Example 84, 2-(4-{2-Fluoro-4-[3-(1-quinolin-6-ylcyclopropyl)imidazo[1,2-a]pyrimidin-6-yl]phenyl}-1H-pyrazol-1-yl)-N,N-dimethylacetamide]	< 500
CNC(=O)c1ccc(-c2ccc(-c3cnc4ncc(C5(c6ccc7ncccc7c6)CC5)n4c3)cc2F)cn1 [Example 85, 5-{2-Fluoro-4-[3-(1-quinolin-6-ylcyclopropyl)imidazo[1,2-a]pyrimidin-6-yl]phenyl}-N-methylpyridine-2-carboxamide]	< 500
CN(C)C(=O)c1ccc(-c2ccc(-c3cnc4ncc(C5(c6ccc7ncccc7c6)CC5)n4c3)cc2F)cn1 [Example 86, 5-{2-Fluoro-4-[3-(1-quinolin-6-ylcyclopropyl)imidazo[1,2-a]pyrimidin-6-yl]phenyl}-N,N-dimethylpyridine-2-carboxamide]	< 500
CNC(=O)c1ccc(-c2ccc(-c3cnc4ncc(C5(c6ccc7ncccc7c6)CC5)n4n3)cc2)cn1 [Example 94, N-Methyl-5-{4-[7-(1-quinolin-6-ylcyclopropyl)imidazo[1,2-b][1,2,4]triazin-2-yl]phenyl}pyridine-2-carboxamide]	< 500
c1cnc2ccc(C3(c4cnc5ncc(-c6ccc(-c7cncnc7)cc6)nn45)CC3)cc2c1 [Example 95, 6-{1-[2(4-Pyrimidin-5-yl-phenyl)imidazo[1,2-b][1,2,4]triazin-7-yl]cyclopropyl}quinoline]	< 500
CC(=O)N1CC=C(c2ccc(-c3cnc4ncc(C5(c6ccc7ncccc7c6)CC5)n4n3)cc2)CC1 [Example 96, 6-(1-{2-[4-(1-Acetyl-1,2,3,6-tetrahydropyridin-4-yl)phenyl]imidazo[1,2-b][1,2,4]triazin-7-yl}cyclopropyl)quinoline]	< 500
CS(=O)(=O)N1CC=C(c2ccc(-c3cnc4ncc(C5(c6ccc7ncccc7c6)CC5)n4n3)cc2)CC1 [Example 97, 6-[1-(2-{4-[1-(Methylsulfonyl)-1,2,3,6-tetrahydropyridin-4-yl]phenyl}imidazo[1,2-b][1,2,4]triazin-7-yl)cyclopropyl]quinoline]	< 500
CN(C)C(=O)c1ccc(-c2ccc(-c3cnc4ncc(C5(c6ccc7ncccc7c6)CC5)n4n3)cc2)cn1 [Example 98, N,N-Dimethyl-5-{4-[7-(1-quinolin-6-ylcyclopropyl)imidazo[1,2-b][1,2,4]triazin-2-yl]phenyl}pyridine-2-carboxamide]	< 500
c1cnc2ccc(C3(c4cnc5ncc(-c6ccc(-n7ccnc7)cc6)nn45)CC3)cc2c1 [Example 99, 6-(1-{2-[4-(1H-Imidazol-1-yl)phenyl]imidazo[1,2-b][1,2,4]triazin-7-yl}cyclopropyl)-quinoline]	< 500
